B1: E. histolytica methionine aminopeptidase 2 (EhMetAP2) (Entamoeba histolytica HM-1:IMSS) (protein)
chain: MQATGKPHSKTSKSKKSGSKANKKPATSSVKPNTPAAPVDPSVIPPEIKEPTETLSTMYKDEKCFPEGENMQYTQEWNLQRFTSAEARERERALIDIEDYRKAAAIHKSVRQWAQQWIKPGMSDLFVAENIERKVREECEVDGVNTTERGMAFPCGLSVNSCAAHFTPNPNDPLSFYKTDDVVKIDFGVHVNGHLIDSAFTMTWDPALQPILDCSKDATNTGIKNIGVDVRLCDIGDAIEEVMSSYEVEIKGKTYQLQPVRNLSGHMVGSYAVHAGKSIPICKGGPQTKMEEGEVYALETFATTGRGRVDDSGPASHYMVDANAFDYPVRDGNAKRLLHALDANFKTLAFCRRYVDKIGFAKWQMPFKFLVDDGCVNAYPPLSDCHGSYVAQFEHTIYLKPTCKEVLSRSFDY
notes: full-length, N-terminal GST fusion (GST-EhMetAP2) expressed in S. cerevisiae

Key:
[1] = molecular target: T1, E. histolytica methionine aminopeptidase 2 (EhMetAP2) (Entamoeba histolytica, UniProt C4LWW4); assay: fluorogenic Met-MCA aminopeptidase assay with purified GST-EhMetAP2, double-reciprocal plot; assay type: biochemical
T1 construct: gene EHI_126880; full-length, N-terminal GST fusion (GST-EhMetAP2) expressed in S. cerevisiae
T1 sequence (C4LWW4 1-413): B1 chain

[2] = substrate: CSCC[C@H](N)C(=O)Nc1ccc2c(C)cc(=O)oc2c1; assay: fluorometric hydrolysis by purified GST-EhMetAP2; Km by end point assay; assay type: biochemical, Entamoeba histolytica; conditions: Mn2+ / Mg2+ ([…] MnCl2, […] MgCl2 in the assay)

Row | Molecule | Ki [1] | Km [2]
1 | CO[C@@H]1[C@H](OC(=O)/C=C/C=C/C=C/C=C/C(=O)O)CC[C@]2(CO2)[C@H]1[C@@]1(C)O[C@@H]1CC=C(C)C [compound 1, fumagillin] | 60 ± 33 nM | 
2 | B1 |  | 770 ± 40 µM

From publication PMC10648944, “Fumagillin inhibits growth of the enteric protozoan parasite Entamoeba histolytica by covalently binding to and selectively inhibiting methionine aminopeptidase 2” (Antimicrobial Agents and Chemotherapy, 2023)
